Each structure is given as a SMILES string. Like-named read-outs stand apart in the source and are kept apart here.

The test system of one data set is replicon cells. As to the kind of experiment: Cytotoxicity assay in replicon cells (MTS, CellTiter 96). The following applies: three days post dosing, read-out: CC50 (EDU) Range. Format: cell-based. On the procedure: (§1) DMSO at 0.5% and fetal bovine serum at 10% in the assay media. Cells are harvested three days post-dosing, and the replicon RNA level is determined using real-time RT-PCR (Taqman assay) with GAPDH RNA as endogenous control. EC50 values are calculated from experiments with 10 serial twofold dilutions of the inhibitor in triplicate. To measure cytotoxicity in replicon cells of an inhibitor, an MTS assay is performed according to the manufacturer's protocol for CellTiter 96 Aqueous One Solution Cell Proliferation Assay (Promega, Cat # G3580) three days post dosing on cells treated identically as in replicon activity assays. […] Cytotoxicity in other types of cells may be measured using the same MTS protocol.
(§2) Data were obtained using this method for selected compounds of the present invention, and are set forth below in Table 1.
For orientation: Replicon systems follow genome replication, usually without infectious particles.

The subject of a further data set is replicon cells (1b-Con1). Kind of data set: Replicon activity assay (cell-based anti-HCV activity, replicon RNA by real-time RT-PCR). On the procedure: To measure cell-based anti-HCV activity of the compounds of the present invention, replicon cells (1b-Con1) are seeded at 5000 cells/well in 96-well plates one day prior to treatment with a compound of the invention. Various concentrations of a test compound of the invention in DMSO are then added to the replicon cells, with the final concentration of
as §1, §2

The nature of data set [1]: Cytotoxicity assay in replicon cells (MTS, CellTiter 96). In kind it is cell-based. The following applies: three days post dosing, read-out: CC50 (EDU) Range. How it is done:
as §1, §2

Setting [2] is: read-out: EC50 (1b) Range, replicon cells (1b-Con1), replicon RNA level three days post-dosing, GAPDH RNA as control.
The mark [3] stands for this setting: Hepatitis C virus, 72 h, read-out: EC50 (1b) Range, replicon cells (1b-Con1), replicon RNA level three days post-dosing, GAPDH RNA as control.

For `CCOC(=O)[C@@H](C)CCOP1(=O)OC[C@H]2O[C@@H](n3ccc(N)nc3=O)C(F)(F)[C@@H]2O1` (single isomer, unassigned) [Compound 9 Diastereomer 2], in the data set on replicon cells, the 50% cytotoxic concentration (CC50) (as a rule, the concentration at which the toxic effect on the cells reaches its halfway point) was at most 50000 nM. Besides, the EC50 (as a rule, the concentration that produces a half-maximal response) with replicon cells (1b-Con1) (setting [2]) was 250 to 1000 nM.

As for `CCOC(=O)[C@H](C)CCOP1(=O)OC[C@H]2O[C@@H](n3ccc(N)nc3=O)C(F)(F)[C@@H]2O1` (single isomer, unassigned) [Compound 10 Diastereomer 2], in the data set with replicon cells, the CC50 was at most 50000 nM. Further, the concentration for a half-maximal effect (EC50) in the data set with replicon cells (1b-Con1) (setting [2]) lay in the range of 250 to 1000 nM.

Take `CCOC(=O)[C@@H](C)CCOP1(=O)OC[C@H]2O[C@@H](n3ccc(N)nc3=O)C(F)(F)[C@@H]2O1` (single isomer, unassigned) [Compound 9 Diastereomer 1]: in data set [1], the CC50 at 3 days is at most 50000 nM. Further, the EC50 with replicon cells (1b-Con1) (setting [3]) lay within 250 to 1000 nM.

As to `CCOC(=O)[C@H](C)CCOP1(=O)OC[C@H]2O[C@@H](n3ccc(N)nc3=O)C(F)(F)[C@@H]2O1` (single isomer, unassigned) [Compound 10 Diastereomer 1], in data set [1], the CC50 at 3 days was at most 50000 nM. Besides, the EC50 in the data set with replicon cells (1b-Con1) (setting [3]) fell in the range of 250 to 1000 nM.

With `CC(C)OC(=O)[C@@H](C)CCOP1(=O)OC[C@H]2O[C@@H](n3ccc(N)nc3=O)C(F)(F)[C@@H]2O1` (single isomer, unassigned) [Compound 8 Diastereomer 2], the CC50 in the data set on replicon cells is at most 50000 nM. Further, the EC50 with replicon cells (1b-Con1) (setting [2]) lay in the range of 250 to 1000 nM.

In the case of `CC(C)OC(=O)[C@H](C)CCOP1(=O)OC[C@H]2O[C@@H](n3ccc(N)nc3=O)C(F)(F)[C@@H]2O1` (single isomer, unassigned) [Compound 7 Diastereomer 1], in data set [1], the CC50 at 3 days was at most 50000 nM. The EC50 in the data set on replicon cells (1b-Con1) (setting [3]) was 250 to 1000 nM.

Consider `CC(C)OC(=O)[C@@H](C)CCOP1(=O)OC[C@H]2O[C@@H](n3ccc(N)nc3=O)C(F)(F)[C@@H]2O1` (single isomer, unassigned) [Compound 8 Diastereomer 1], for which the CC50 at 3 days in data set [1] is at most 50000 nM. The EC50 with replicon cells (1b-Con1) (setting [3]) is 250 to 1000 nM.

For the compound `CC(C)OC(=O)[C@H](C)CCOP1(=O)OC[C@H]2O[C@@H](n3ccc(N)nc3=O)C(F)(F)[C@@H]2O1` (single isomer, unassigned) [Compound 7 Diastereomer 2], in the data set with replicon cells, the CC50 was at most 50000 nM. The concentration for a half-maximal effect (EC50) in the data set with replicon cells (1b-Con1) (setting [2]) was under 250 nM.

(Values after patent US20190192548A1, “USE OF CYCLIC PHOSPHATE SUBSTITUTED NUCLEOSIDE DERIVATIVESFOR THE TREATMENT OF VIRAL DISEASES” (MERCK SHARP & DOHME CORP., priority 2016, published 2019).)
